In patent US20150246024A1 (priority 2012, published 2015):
≈ marks a conversion by molar mass, not a printed value. Where “and” joins values, the source holds several entries; their conditions need not be identical. Equal values may be shown once. Entries after “also recorded” stand apart in the source; their conditions may differ.

Experiments:
[1] = system: E. faecalis V583; type: cell-based
[2] = system: C. difficile UK1; assay: Growth inhibition assay (MIC/IC50), 96-well; type: cell-based
[3] = system: B. anthracis Sterne; type: cell-based; conditions: 5 μM compound, liquid culture
[4] = system: B. anthracis Sterne; type: cell-based
[5] = system: S. aureus - MRSA USA300; assay: microbe, parasite or virus in culture; type: cell-based; conditions: 37° C., 18-22 hours, OD600
[6] = system: S. aureus RN4220; assay: Growth of S. aureus culture with sub-lethal compound (OD600); conditions: until control culture OD600 1.0
[7] = system: B. anthracis Sterne; assay: microbe, parasite or virus in culture; type: cell-based; conditions: 37° C., 18-22 hours, OD600
[8] = Half-life of compound in mice (blood, HPLC, mass spectrometry); type: in vivo; conditions: 32 mg/kg intraperitoneal
Description: The therapeutic impact of compound 1771 during infection was examined. First, we evaluated the half-life of compound 1771 in vivo. Animals received intraperitoneal injections with 32 mg/kg of compound. The blood of three animals was drawn 1, 6 and 12 hours following intraperitoneal injections and the compound was extracted with methanol and chloroform, separated by reverse phase HPLC and subjected to mass spectrometry (data not shown). […] The conversion occurred between 3 and 6 hours. To evaluate, the efficacy of compound 1771, we used a mouse model of staphylococcal sepsis. Animals received intraperitoneal injections with 32 mg/kg of compound in 12-hour intervals. Treatment was initiated 24 hours prior to challenge and terminated at 72 hours post infection.
To examine the therapeutic value of compound 1771, we evaluated its half-life in mice. Animals received a single intraperitoneal injection of 32 mg/kg compound 1771. The blood of three animals was drawn 1, 6 and 12 hours following 1771 injection and serum samples were extracted with methanol and chloroform, separated by reversed-phase HPLC and subjected to mass spectrometry. […] Full conversion of compound 1771 into its two cleavage fragments occurred between 3 and 6 hours following injection. […]

[9] = system: E. faecium TX0016; type: cell-based
[10] = system: E. faecalis V583; type: cell-based; remark: listed apart in the source
[11] = system: S. aureus RN4220 (MSSA); assay: microbe, parasite or virus in culture; type: cell-based; conditions: 37° C., 18-22 hours, OD600
[12] = system: S. aureus RN4220; type: cell-based
[13] = system: S. aureus RN4220 colony isolates from gradient plates with 10-200 μM compound 1771; assay: Susceptibility of colony isolates from compound 1771 gradient plates; type: cell-based
[14] = system: C. difficile CD196; assay: Growth inhibition assay (MIC/IC50), 96-well; type: cell-based
[15] = system: B. cereus G9142; type: cell-based
[16] = target: extracellular S. aureus LtaS (eLtaS) (Staphylococcus aureus, UniProt Q2G093); type: binding; conditions: 200 μM compound in mobile phase
Chain of extracellular S. aureus LtaS (eLtaS) (Q2G093 218-646): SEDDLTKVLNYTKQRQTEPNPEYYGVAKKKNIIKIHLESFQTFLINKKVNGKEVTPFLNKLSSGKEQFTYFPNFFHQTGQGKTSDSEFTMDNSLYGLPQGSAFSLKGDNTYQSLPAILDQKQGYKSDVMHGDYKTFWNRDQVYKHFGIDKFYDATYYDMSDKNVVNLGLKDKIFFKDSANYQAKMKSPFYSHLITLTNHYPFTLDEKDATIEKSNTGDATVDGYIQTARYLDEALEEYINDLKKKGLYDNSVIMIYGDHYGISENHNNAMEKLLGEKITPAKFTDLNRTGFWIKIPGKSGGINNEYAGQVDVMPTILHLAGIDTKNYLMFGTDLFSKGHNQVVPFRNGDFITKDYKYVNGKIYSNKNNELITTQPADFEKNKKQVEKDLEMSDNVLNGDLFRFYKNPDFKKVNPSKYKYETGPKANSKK

[17] = target: Recombinant S. aureus LtaSSA expressed in E. coli (Staphylococcus aureus, UniProt Q2G093); type: cell-based
Chain of Recombinant S. aureus LtaSSA expressed in E. coli (Q2G093 whole entry): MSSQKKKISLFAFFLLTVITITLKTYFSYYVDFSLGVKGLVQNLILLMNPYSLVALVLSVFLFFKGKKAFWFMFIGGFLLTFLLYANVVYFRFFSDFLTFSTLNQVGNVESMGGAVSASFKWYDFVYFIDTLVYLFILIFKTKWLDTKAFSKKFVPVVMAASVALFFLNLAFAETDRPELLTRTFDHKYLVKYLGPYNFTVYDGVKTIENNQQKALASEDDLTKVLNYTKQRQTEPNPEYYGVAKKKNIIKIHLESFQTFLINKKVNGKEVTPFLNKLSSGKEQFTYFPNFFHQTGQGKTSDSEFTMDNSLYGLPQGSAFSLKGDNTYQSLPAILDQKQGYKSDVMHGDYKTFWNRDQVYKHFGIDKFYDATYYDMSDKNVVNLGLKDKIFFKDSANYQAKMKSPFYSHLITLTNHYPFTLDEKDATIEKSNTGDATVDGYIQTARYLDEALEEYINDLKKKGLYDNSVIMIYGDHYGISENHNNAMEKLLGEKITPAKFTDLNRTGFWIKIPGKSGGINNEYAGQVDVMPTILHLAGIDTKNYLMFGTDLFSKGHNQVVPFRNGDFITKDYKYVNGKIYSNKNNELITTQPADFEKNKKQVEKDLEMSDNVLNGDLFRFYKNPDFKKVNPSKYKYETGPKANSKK

[18] = system: LTA production in S. aureus; assay: Inhibition of LTA synthesis in S. aureus (immunoblot)
[19] = system: C. difficile JIR8094; assay: Growth inhibition assay (MIC/IC50), 96-well; type: cell-based; conditions: sigmoidal fit
[20] = system: E. faecium TX0016; type: cell-based; remark: listed apart in the source
[21] = system: B. anthracis LtaS2BA expressed in E. coli; type: cell-based; conditions: 200 μM compound
[22] = system: S. aureus RN4220; type: cell-based; remark: listed apart in the source
[23] = system: B. anthracis Ames; type: cell-based; conditions: 37° C., 18-22 hours, OD600
[24] = target: eLtaS (Staphylococcus aureus, UniProt Q2G093); assay: eLtaS-mediated cleavage of NBD-PGC6 to NBD-DAGC6; type: biochemical, S. aureus; conditions: 100 μM compound, 6 hours, 37° C.
Chain of eLtaS (Q2G093 218-646): as the sequence (Q2G093 218-646) above
Description: FIG. 10. Compound 1771 inhibits eLtaS binding to and cleavage of phosphatidylglycerol (PG) in vitro. Using NBD-PGC6 with 6 carbon acyl chains cleavage of 2 nmol substrate by 2 nmol eLtaS was detectable after 6 hours incubation at 37° C. Chloroform extraction separated non-hydrolyzed NBD-PGC6 (aqueous phase—AP) from the hydrophobic reaction product nitro-benzoxadiazole diacylglycerol (NBD-DAGC6), which segregated into the organic phase (OP). Both phases were analyzed by normal-phase HPLC on a diol column (solid line). Elution profiles were monitored by fluorescence (excitation at 460 nm, emission at 534 nm). Identity of peak fractions was confirmed by mass spectrometry. Addition of 100 μM compound 1771 blocked NBD-DAGC6 production by eLtaS (dashed line).
We used size exclusion HPLC with BioBasic SEC300 column equilibrated with 20 nmol nitro-benzoxadiazole glycerol-phosphate (NBD-GP) to measure binding of enzyme to substrate. Chromatography of 2 nmol eLtaS on BioBasic SEC300 column led to the elution of enzyme.NBD-GP complex and absorbance at 460 nm (FIG. 5). […]

[25] = system: C. difficile R20291; assay: Growth inhibition assay (MIC/IC50), 96-well; type: cell-based
[26] = system: E. coli; type: cell-based
[27] = system: E. faecalis - VRE V583; assay: microbe, parasite or virus in culture; type: cell-based; conditions: 37° C., 18-22 hours, OD600
[28] = system: E. faecium - VRE TX0016; assay: microbe, parasite or virus in culture; type: cell-based; conditions: 37° C., 18-22 hours, OD600
[29] = system: C. perfringens SM101; type: cell-based; conditions: nitrogen atmosphere, 37° C., 18-22 hours

## O=C(COC(=O)Cc1coc2ccc3ccccc3c12)Nc1nnc(-c2ccccc2)o1 [Compound 1771, 2-oxo-2-[(5-phenyl-1,3,4-oxadiazol-2-yl)amino]ethylnaphtho[2,1-b]furan-1-ylacetate]
[1]
  Cell clusters/all cocci: 2/496
[2]
  MIC: 6.2 µM (≈ 2.65 µg/mL)
[2]; sigmoidal fit
  IC50: 3.3 µM
[3]
  chain length of vegetative bacilli: increased chain length; also recorded: formed longer chains
[4]; 8 μM compound
  Cell envelope diameter Δ (1771 vs mock): 6.3 (±1.0) nm
[4]; BHI agar with 8 μM compound, mean of 124 (SEM)
  Cell envelope diameter: 46.8 (±0.7) nm
[5]
  MIC: 50.0 µM (≈ 21.4 µg/mL)
[5]; sigmoidal fit, read-out: IC50
  IC50: 14 µM
[6]; 2 μM compound
  reduced growth of staphylococci: 50%
[6]; 5 μM compound
  reduced growth of staphylococci: 75%
[7]
  MIC: 12.5 µM (≈ 5.34 µg/mL)
[7]; sigmoidal fit, read-out: IC50
  IC50: 7.7 µM and 6.53 µM
[8]
  stability in mice: unstable in mice with rapid loss of activity
[9]
  Cell envelope diameter: 32.4 (±0.5) nm
  Cell envelope diameter Δ (1771 vs mock): 9.6 (±0.6) nm
[10]
  Cell envelope diameter: 31.6 (±0.6) nm
  Cell envelope diameter Δ (1771 vs mock): 7.8 (±0.7) nm
[11]
  MIC: 12.5 µM (≈ 5.34 µg/mL)
[11]; sigmoidal fit, read-out: IC50
  IC50: 7.48 µM and 7.3 µM
[12]
  Cell clusters/all cocci: 3/387
[13]; Isolate 1
  IC50: 8.7 µM
  MIC: 18.8 µM (≈ 8.04 µg/mL)
[13]; Isolate 2
  IC50: 9.2 µM
  MIC: 18.8 µM (≈ 8.04 µg/mL)
[13]; Isolate 3
  IC50: 12.2 µM
  MIC: 18.8 µM (≈ 8.04 µg/mL)
[14]
  MIC: 6.5 µM (≈ 2.78 µg/mL)
[14]; sigmoidal fit
  IC50: 4.3 µM
[15]
  IC50: 10.7 µM
  MIC: 25.0 µM (≈ 10.7 µg/mL)
[16]
  Co-elution of phosphatidylglycerol with eLtaS, reduction: more than 95%
  elution of NBD-PG.eLtaS complex: abolished
[17]
  production of LTA promoted by plasmid encoded LtaSSA: abrogated
[18]; 5 μM compound
  LtaS immunoreactive signals: slightly unstable; also recorded: reduced
[18]; 2 or 5 μM compound
  abundance of sortase A (SrtA), control: remained unaffected; also recorded: not affected
[18]; sub-lethal concentrations of compound
  LTA production (immunoblot α-LTA): affect the production of LTA; also recorded: reduced the abundance of LTA
[19]
  IC50: 8.2 µM
[20]
  Cell clusters/all cocci: 1/295
[21]
  LTA production by LtaS2BA: completely abolished; also recorded: abrogated
[22]
  Cell envelope diameter: 38.8 (±0.9) nm
  Cell envelope diameter Δ (1771 vs mock): 7.5 (±1.1) nm
[23]
  MIC: 12.5 µM (≈ 5.34 µg/mL)
[23]; sigmoidal fit
  IC50: 7.6 µM
[24]
  NBD-DAGC6 production by eLtaS: blocked; also recorded: inhibited
[25]
  MIC: 6.2 µM (≈ 2.65 µg/mL)
[25]; sigmoidal fit
  IC50: 5.3 µM
[26]
  growth of E. coli: not affected; also recorded: did not affect the growth
[27]
  MIC: 50.0 µM (≈ 21.4 µg/mL)
[27]; sigmoidal fit, read-out: IC50
  IC50: 27.3 µM
[28]
  MIC: 50.0 µM (≈ 21.4 µg/mL)
[28]; sigmoidal fit, read-out: IC50
  IC50: 23.3 µM
[29]
  MIC: 6.2 µM (≈ 2.65 µg/mL)
[29]; sigmoidal fit
  IC50: 2.5 µM
